Laboratory results: patent US20070122437A1, “Novel insecticide composition and use thereof particularly for impregnating mosquito nets, fly screens and the like” (priority 2004, published 2007)

Legend:
Assay type in all cases: in vivo
[1] = test system: Aedes aegypti females, strain sensitive to pyrethroids; assay: Irritability test (time for first take-off in cone on impregnated paper), strain sensitive to pyrethroids
Text: (§1) In order to evaluate the irritant effect or irritability, an Ae. aegypti female which is not gorged and is from 2 to 5 days old is introduced into a polyethylene cone the bottom of which is an impregnated paper. After an adaptation time of 60 seconds, the time for first take-off is noted and recorded as time for First Take-off (or FT). After 256 seconds, if the mosquito has not taken off, the test is stopped. For each test, the flying activity of 50 females is noted, and each test is repeated three times. The females are sorted into classes according to their time for first take-off and the cumulative first take-off frequencies are used in order to calculate the time at which 50% of the females have taken off (FT50). All the tests take place under controlled conditions, at 27° C.±2 and 80% ±10 humidity.
(§2) The irritability tests were carried out (a female in a cone in contact with the impregnated surface, reading of the time for first take-off after the Ist minute has passed, 50 females per test) according to the following protocol.
Ae. aegypti females which have not fed on blood, from 2 to 5 days old, were introduced individually into plastic cones applied to treated filter papers. After an adaptation time of exactly 60 seconds, the time which has passed between the first landing and the next take-off was defined as being <<the first take-off time>> (FT). The observation was not extended for the rare mosquitoes which had not taken off after 256 seconds. For each test, 50 mosquitoes were tested individually. A simple computer program using the internal clock of a laptop computer was used in order to carry out this test and in order to analyze the results grouping the mosquitoes into classes for time of first take-off. The time at which 50% of the mosquitoes have left the treated surface (median first take-off time, FT50) and its confidence interval at 95% were then determined using the log-probit method.

[2] = test system: Aedes aegypti females, strain sensitive to pyrethroids; assay: WHO tube test on impregnated paper (KD effect and 24 h mortality), strain sensitive to pyrethroids
Text: (§3) Determination of the LC100 usually takes place according to the standard tube test protocol defined by the World Health Organization (WHO) (6). Briefly, the tube test is composed of an observation tube and an exposure tube (the two tubes are removable) separated by a slide unit equipped with a partition making it possible to obstruct or re-establish the passage between the two tubes. The other end of each tube is sealed by a ventilation plug equipped with a mesh screen. Each tube is lined, for the purposes of the tests, with Whatman paper (standard qualitative filter paper ref 1002 917 or else Whatman N°1) held on the edges by two metal rings. The exposure tube receives paper impregnated with insecticide (impregnated surface on the inside) while the observation tube receives non-impregnated (neutral) paper. In order to impregnate the papers in a homogeneous fashion and to the saturation limit, 2 ml of solution constituted by 0.66 ml of silicone and 1.34 ml of acetone solution are used. For an impregnation at X mg/m^2, the quantity of active ingredient to be deposited on the paper (12 cm×15 cm i.e. 0.018 m^2) is 0.018.X mg of active ingredient (quantity to be adjusted as a function of the degree of purity of the technical product). This quantity of active ingredient is then diluted in 1.34 ml of acetone solution to which 0.66 ml of silicone is then added. The paper dries at ambient temperature, in the dark for 12 hours before the start of the test. The concentrations are expressed in % of active ingredient relative to the volume of silicone on the paper (as the acetone is volatile).
In order to evaluate the mortality and the KD effect, 25 Ae. aegypti females which are not gorged and are from 2 to 5 days old are introduced into the exposure tube and are left in contact for one hour at 27° C.±2 and 80%±10 humidity. The number of mosquitoes which have fallen to the bottom of the tube is noted every 10 minutes. After 60 minutes, the mosquitoes are transferred into the observation tube, with sugared juice and placed in an incubator at 27° C.±2 and 80% ±10 humidity. The mortality is noted at 24 hours. The time at which 50% of the females are knocked-down (KDT50) as well as its confidence interval are determined using a log-probit analysis (7). Four tubes are tested per solution and each test is repeated three times (triple test method).
The tarsal contact tests were implemented using filter paper (standard qualitative filter paper ref 1002 917 or else Whatman N° 1) impregnated with technical quality products according to the recommendations of the World Health Organization (WHO, 6). The filter papers were treated using solutions of insecticide and/or insect repellent diluted in acetone with silicone oil as support. The impregnation of the paper was carried out with 2 ml of the solutions to be tested, then the paper was dried for 12 h. The mortality and the KD effect resulting from the tarsal contacts with treated filter paper were measured using the adult mosquito test tubes of the WHO. The concentrations were expressed in weight of active ingredient relative to the surface of treated filter paper surface. Batches of 25 Ae. aegypti females which have not fed on blood, from 2 to 5 days old, were introduced into holding tubes and kept for 1 h (adaptation time) at 27±2° C. and 80±10% humidity. The mosquitoes were then transferred into the exposure tube and placed under dimmed light for 1 h. For the purpose of comparison with pyrethroids, which are rapid action insecticides, the number of mosquitoes knocked down at the bottom of the tubes was counted at regular intervals of 10 min. The time at which 50% of the mosquitoes are knocked down (KDT50) and its confidence interval at 95% were then determined using the log-probit method (7). The mortality was recorded after 24 hours of exposure. Each concentration was tested four times and each test was repeated three times with different groups of insects in order to consider inter-batch variability. […]

[3] = test system: Aedes aegypti females, a strain resistant to pyrethroids (homozygous for the kdr gene); assay: WHO tube test on impregnated paper (KD effect and 24 h mortality), strain resistant to pyrethroids
Text: as §3, with “The concentrations are expressed in % of active ingredient relative to the volume of silicone on the paper (as the acetone is volatile).” left out
The tarsal contact tests were implemented using filter paper (standard qualitative filter paper ref 1002 917 or else Whatman N° 1) impregnated with technical quality products according to the recommendations of the World Health Organization (WHO, 6). […] The mortality and the KD effect resulting from the tarsal contacts with treated filter paper were measured using the adult mosquito test tubes of the WHO. […] For the purpose of comparison with pyrethroids, which are rapid action insecticides, the number of mosquitoes knocked down at the bottom of the tubes was counted at regular intervals of 10 min. […]

[4] = test system: Aedes aegypti females, a strain resistant to pyrethroids (homozygous for the kdr gene); assay: Irritability test (time for first take-off in cone on impregnated paper), strain resistant to pyrethroids; conditions: 5.1 mg/m^2
Text: as §1, with “humidity. […]” for “humidity.”
as §2
Ae. aegypti females which have not fed on blood, from 2 to 5 days old, were introduced individually into plastic cones applied to treated filter papers. […] The time at which 50% of the mosquitoes have left the treated surface (median first take-off time, FT50) and its confidence interval at 95% were then determined using the log-probit method. […]

[5] = sensitive strain, impregnated paper

Row | Compound | Irritability FT50 ([1]; 364 mg/m^2 on impregnated paper) [s] | mortality at 364 mg/m2 ([2]; Aedes aegypti, 364 mg/m^2, 1 h contact, read after 24 h, sensitive strain) [%] | insecticide effect (in words) ([2]; DEET alone, 364 mg/m^2) | mortality at 364 mg/m2 ([3]; 364 mg/m^2, 1 h contact, read after 24 h, resistant strain) [%] | Irritability FT50 ([1]; 7.28 mg/m^2 on impregnated paper) [s] | mortality at 7.28 mg/m2 ([2]; Aedes aegypti) [%] | lethal concentration 30 (LC30) [2, 5] [mg/m^2] | mortality at 3.64 mg/m2 [3] [%] | Irritability FT50 [4] [s] | Irritability FT50 ([1]; 0.728 mg/m^2 (LC30)) [s] | Irritability FT50 ([1]; 5.1 mg/m^2 (LC100)) [s] | mortality at 0.728 mg/m2 ([2]; Aedes aegypti, 0.728 mg/m^2, 1 h contact, read after 24 h, sensitive strain) [%] | mortality at 5.1 mg/m2 ([2]; Aedes aegypti, 5.1 mg/m^2, 1 h contact, read after 24 h, sensitive strain) [%] | LC100 [2, 5] [mg/m^2] | mortality at 5.1 mg/m2 ([3]; 5.1 mg/m^2, 1 h contact, read after 24 h, resistant strain) [%]
1 | CCN(CC)C(=O)c1cccc(C)c1 [DEET, N,N-diethyl-meta-toluamide] | 24.2 | 0 | does not itself have any insecticide effect | 0 |  |  |  |  |  |  |  |  |  |  | 
2 | CNC(=O)Oc1ccccc1OC(C)C [Propoxur, 2-isopropyloxyphenolmethylcarbamate] |  |  |  |  | 133.9 | 34 | 7.28 | 34.5 |  |  |  |  |  |  | 
3 | CC1(C)[C@H](C(=O)O[C@H](C#N)c2cccc(Oc3ccccc3)c2)[C@@H]1C=C(Br)Br [deltamethrin] |  |  |  |  |  |  | 0.728 |  | 34.98 | 23.9 | 16.9 | 34 | 100 | 5.1 | 8
